Test results: EP4563149A1, “LURBINECTEDIN, ECUBECTEDIN AND A RELATED COMPOUND FOR USE IN THE TREATMENT OF SKIN CANCERS” (Pharma Mar, S.A., priority 2023, dated 2025)
Like-named read-outs stand apart in the source and are kept apart here.

Columns and labels:
IGR37 = test: Cell viability assay (PrestoBlue), 72h; conditions: Homo sapiens, IGR-37, 72 h
Procedure: (§7) Cells were grown at 37°C in 5% CO2 (10% for Hermes 3A) and were regularly checked for mycoplasma contamination. […] Melanoma cell lines 501mel and SKmel28 were grown in RPMI w/o HEPES (Gibco, Invitrogen) supplemented with 10% FCS and gentamycin. Vemurafenib-resistant cells (501melVemuR and MM074VemuR) were additionally supplemented with 1.5 µM of vemurafenib. Melanoma IGR cell lines (IGR37 and IGR39) were grown in RPMI w/o HEPES (Gibco, Invitrogen) supplemented with 15% FCS and gentamycin.
(§8) To determine the IC50 (half maximal inhibitory concentration) of these cells to various inhibitors, cell viability assays were performed.
(§9) After 72h of treatment with different concentrations of the compounds, cells were treated with PrestoBlue reagent according to the manufacturer's instructions. The absorbance per well was measured with a Cellinsight CX5 microplate reader. Data were analyzed using Prism9 statistical software.

501mel = test: Cell viability assay (PrestoBlue), 72h; conditions: Homo sapiens
Procedure: as §7, §8, §9

[1] = tested on: WM-266-4 melanoma xenografts; conditions: 1.2 mg/kg intravenous
Procedure: (§1) Female athymic nu/nu mice (Harlan Laboratories Models, S.L. Barcelona, Spain or Envigo, Spain) were utilized for all experiments. Animal were housed in individually ventilated cages Sealsafe® Plus, Techmplast S.P.A.), up to ten per cage on a 12-hour light-dark cycle at 21-23 °C and 40-60 % humidity. Mice were allowed free access to irradiated standard rodent diet (Tecklad 2914C) and sterilized water. Animals were acclimated for at least 5 days prior to tumor implantation with a tumor cell suspension.
(§2) The cell line used are: • 501mel • IGR-37 • SK-Mel-28 • WM-266-4 • LOX-IMVI • 501mel^Vemur
(§3) In xenograft studies with cell lines: • Tumour volume was calculated using the equation […], where a: length (longest diameter) and b: width (shortest diameter) were measured in mm by using digital caliper (Fowler Sylvac, S235PAT). Tumour dimensions and body weights were recorded 2-3 times per week starting from the first day of treatment. • When tumors reached ca. 150-250 mm^3, tumour bearing animals (N = 8-10/group) were randomly allocated into the treatment groups, based on body weight and tumour measurements by using NewLab Oncology Software (version 2.25.06.00). • Comparison between median tumour volume of treated and placebo groups was used for evaluation of the antitumoural efficacy. • Animals were euthanized when their tumours reached ca. 1,500 mm^3 and/or severe necrosis was seen.
(§4) Treatments producing >20 % lethality and/or 20% net body weight loss were considered toxic.
(§5) In these experiments, PM14 and Compound IA, as well as placebo, were intravenously administered once per week for 3 consecutive weeks, on days 0, 7 and 14, whenever it was possible.
Table 7. Tumour volume evaluation in WM-266-4 melanoma xenografts with PM14 and Compound IA and placebo.

[2] = tested on: Sk-mel-28 melanoma xenografts; conditions: 1.2 mg/kg intravenous
Procedure: as §1, §2, §3, §4, §5
Table 6. Tumour volume evaluation in Sk-mel-28 melanoma xenografts with PM14 and Compound IA and placebo.

MM074^VemuR = test: Cell viability assay (PrestoBlue), 72h; conditions: Homo sapiens
Procedure: Cells were grown at 37°C in 5% CO2 (10% for Hermes 3A) and were regularly checked for mycoplasma contamination. MM patient-derived short-term melanoma cultures (MM011, MM074, MM117, MM029, MM047, MM099) were grown in HAM-F10 (Gibco, Invitrogen) supplemented with 10% Fetal Calf Serum (FCS), 25 mM HEPES, 5.2 mM GLUTAMAX and penicillin-streptomycin. Melanoma cell lines 501mel and SKmel28 were grown in RPMI w/o HEPES (Gibco, Invitrogen) supplemented with 10% FCS and gentamycin. Vemurafenib-resistant cells (501melVemuR and MM074VemuR) were additionally supplemented with 1.5 µM of vemurafenib. Melanoma IGR cell lines (IGR37 and IGR39) were grown in RPMI w/o HEPES (Gibco, Invitrogen) supplemented with 15% FCS and gentamycin.
as §8, §9

[3] = tested on: IGR-37 melanoma xenografts; conditions: 1.2 mg/kg intravenous
Procedure: as §1, §2, §3, §4, §5
Table 5. Tumour volume evaluation in IGR-37 melanoma xenografts with PM14 and Compound IA and placebo.

MM117 = test: Cell viability assay (PrestoBlue), 72h; conditions: Homo sapiens
Procedure: as §7, §8, §9

[4] = tested on: melanoma cell cultures or cell lines; test: Clonogenic assay; assay type: cell-based, human; conditions: 48h at IC50 concentrations, then 10 days without drug
Procedure: Based on the cell viability assays conducted above, the efficacy of lurbinectedin, PM14 or Compound IA on melanoma cell proliferation was investigated. Initially, a clonogenic assay was performed. Cells were drug-treated at IC50 concentrations during 48h before seeding 1×10^3 or 2×10^3 cells in 6-well plates without drug, wherein they grew for 10 days to allow for colony formation. Afterwards, cells were fixed for 10min with 4% formaldehyde solution, washed once with PBS and stained with Crystal Violet solution 0.2% for 15 min. The wells were finally washed twice with deionized water, air dried, scanned and analyzed with Fiji software to count the number of colonies.

MM074 melanospheres [5] = test: Melanosphere viability (CellTiterGlo); assay type: cell-based, human; conditions: 72h, doses equivalent to 5×IC50
Procedure: (§6) MM074 proliferative/differentiated cell line were seeded (5×10^4 cells) in ultra-low attachment hydrogel-layered 96 well plates in KO DMEM medium supplemented with 20% KSR, AANE, 2 mM Glutamax, Penicillin/Streptomycin and 100 uM Beta-mercaptoethanol. To allow for melanosphere formation, cells were left to grow for 4 days before drug treatment.
To analyze melanosphere viability after drug treatment, cells were treated with CellTiterGlo reagent (Promega) according to the manufacturer's instructions. Luminescence signals were measured with a Centro XS LB 960 microplate reader (Berthold).

MM029 = test: Cell viability assay (PrestoBlue), 72h; conditions: Homo sapiens
Procedure: Cells were grown at 37°C in 5% CO2 (10% for Hermes 3A) and were regularly checked for mycoplasma contamination. […] Melanoma IGR cell lines (IGR37 and IGR39) were grown in RPMI w/o HEPES (Gibco, Invitrogen) supplemented with 15% FCS and gentamycin.
as §8, §9

MM074 melanospheres [6] = test: Melanosphere apoptosis (AnnexinV-APC / propidium iodide); assay type: cell-based, human; conditions: 72h
Procedure: as §6
For apoptosis assays with 3D-grown melanoma cells, TrypLe Select 10x reagent (Gibco) was used to dissociate melanospheres to obtain single-cell suspensions. These cells were incubated with AnnexinV-APC (Biolegend) and Propidium Iodide (PI, Biolegend). With bivariant dot plots, it was distinguished between viable (AnnexinV-/PI-), early apoptotic (AnnexinV+/PI-), late apoptotic (AnnexinV+/PI+) and necrotic cells (AnnexinV-/PI+).

[7] = tested on: RPB1 (RNA pol II elongation subunit); test: Immunoblotting of RPB1 in 501mel; assay type: cell-based, human; conditions: 24h at 5×IC50
Procedure: Cells were washed once with cold PBS, rinsed with a cell scraper, pelleted and resuspended in LSDB 0.5M buffer (0.5M KCI, 50mM Tris HCl pH 7.9, 20% Glycerol, 1% NP40, 1mM DTT, PIC). Afterwards cells were fully disrupted with 3 cycles of heat shock in liquid nitrogen and 37°C water bath and centrifugated 15min at 14,000rpm to pellet cell debris. Ten micrograms of extract were loaded on SDS-PAGE before transfer to nitro-cellulose membranes and immunoblotting.

[8] = tested on: xenografts with various melanoma cell lines; conditions: different xenografts, 1.2 mg/kg intravenous once per week for 3 weeks
Procedure: as §1, §2
as §3, with “seen. […]” for “seen.”

With `COc1c(C)cc2c(c1O)[C@@H]1[C@@H]3[C@@H]4SC[C@]5(N[C@H](CO)Cc6c5[nH]c5ccccc65)C(=O)OC[C@@H](c5c6c(c(C)c(OC(C)=O)c54)OCO6)N3[C@@H](O)[C@H](C2)N1C` [PM14, ecubectedin] the IC50 (IGR37) was 1.05 nM, the IC50 (501mel) was 1.25 nM and the “Median Tumour Volume” value ([1]; days 0, 7 and 14, day 0) was 169.5 mm^3. For the same molecule, the “Median Tumour Volume” value ([1]; days 0, 7 and 14, day 3) was 115.1 mm^3, the “Median Tumour Volume” value ([1]; days 0, 7 and 14, day 5) was 118.2 mm^3 and the “Median Tumour Volume” value ([1]; days 0, 7 and 14, day 7) was 136.6 mm^3. The “Median Tumour Volume” value ([1]; days 0, 7 and 14, day 10) was 133.1 mm^3, the “Median Tumour Volume” value ([1]; days 0, 7 and 14, day 12) was 109.8 mm^3 and the “Median Tumour Volume” value ([1]; days 0, 7 and 14, day 14) was 138.4 mm^3. The “Median Tumour Volume” value ([1]; days 0, 7 and 14, day 17) was 129.6 mm^3, the “Median Tumour Volume” value ([1]; days 0, 7 and 14, day 19) was 119.2 mm^3 and the “Median Tumour Volume” value ([1]; days 0, 7 and 14, day 21) was 150.4 mm^3. For the same molecule, the “Median Tumour Volume” value ([1]; days 0, 7 and 14, day 24) was 137.2 mm^3, the “Median Tumour Volume” value ([1]; days 0, 7 and 14, day 26) was 146.9 mm^3 and the “Median Tumour Volume” value ([1]; days 0, 7 and 14, day 28) was 197.6 mm^3. The “Median Tumour Volume” value ([1]; days 0, 7 and 14, day 34) was 388.1 mm^3, the “Median Tumour Volume” value ([1]; days 0, 7 and 14, day 41) was 727.7 mm^3 and the “Median Tumour Volume” value ([1]; days 0, 7 and 14, day 45) was 1,111.6 mm^3. For the same molecule, the “Median Tumour Volume” value ([1]; days 0, 7 and 14, day 48) was 1,503.6 mm^3, the “Median Tumour Volume” value ([2]; days 0, 7 and 14, day 0) was 152.8 mm^3 and the “Median Tumour Volume” value ([2]; days 0, 7 and 14, day 2) was 184.4 mm^3. The “Median Tumour Volume” value ([2]; days 0, 7 and 14, day 4) was 235.4 mm^3, the “Median Tumour Volume” value ([2]; days 0, 7 and 14, day 7) was 326.2 mm^3 and the “Median Tumour Volume” value ([2]; days 0, 7 and 14, day 9) was 401.5 mm^3. The “Median Tumour Volume” value ([2]; days 0, 7 and 14, day 11) was 510.6 mm^3, the “Median Tumour Volume” value ([2]; days 0, 7 and 14, day 14) was 632.6 mm^3 and the “Median Tumour Volume” value ([2]; days 0, 7 and 14, day 16) was 671.9 mm^3. For the same molecule, the “Median Tumour Volume” value ([2]; days 0, 7 and 14, day 18) was 822.8 mm^3, the “Median Tumour Volume” value ([2]; days 0, 7 and 14, day 21) was 884.4 mm^3 and the “Median Tumour Volume” value ([2]; days 0, 7 and 14, day 23) was 1,012.5 mm^3. The “Median Tumour Volume” value ([2]; days 0, 7 and 14, day 25) was 1,204.2 mm^3, the “Median Tumour Volume” value ([2]; days 0, 7 and 14, day 28) was 1,516.7 mm^3 and the IC50 (MM074^VemuR) was 1.63 nM. The “Median Tumour Volume” value ([3]; days 0, 7 and 14, day 0) was 150.4 mm^3, the “Median Tumour Volume” value ([3]; days 0, 7 and 14, day 2) was 216.6 mm^3 and the “Median Tumour Volume” value ([3]; days 0, 7 and 14, day 4) was 326.3 mm^3. For the same molecule, the “Median Tumour Volume” value ([3]; days 0, 7 and 14, day 7) was 544.5 mm^3, the “Median Tumour Volume” value ([3]; days 0, 7 and 14, day 9) was 704.9 mm^3 and the “Median Tumour Volume” value ([3]; days 0, 7 and 14, day 11) was 821.6 mm^3. For the same molecule, the “Median Tumour Volume” value ([3]; days 0, 7 and 14, day 14) was 1,127.4 mm^3, the “Median Tumour Volume” value ([3]; days 0, 7 and 14, day 16) was 1,351.7 mm^3 and the “Median Tumour Volume” value ([3]; days 0, 7 and 14, day 18) was 1,594 mm^3. For the same molecule, the IC50 (MM117) was 0.72 nM, the “colony formation (number of colonies)” value [4] was “significant impact” and the “cell viability in 3D culture” value (MM074 melanospheres [5]) was “significant cytotoxic effects”. For the same molecule, the IC50 (MM029) was 1.4 nM, the “late apoptotic cells positive for Annexin V and propidium iodide” value (MM074 melanospheres [6]) was “substantial population of late apoptotic cells” and the “RPB1 (RNA pol II elongation subunit) degradation” value [7] was “pronounced”. For the same molecule, the “tumor volume compared to the placebo” value [8] was “reduction of the volume tumor”.
